Consider three compounds from paper PMC4774911, “Biochemical Screening of Five Protein Kinases from Plasmodium falciparum against 14,000 Cell-Active Compounds” (PLoS ONE, 2016).

Structures are written as SMILES. “And” between values parts separate entries of the source, which are not always exact repeats. Equal values may be shown once.

What all share (test): biochemical
Conditions in all cases: read-out: KDapp

The target of assay [1] is DDR1 (Homo sapiens, UniProt Q08345). More on the design: endogenous in cells; host or cells: K562 cell extract; species or system K562 (extract); replicate k of n = 2 (each experiment ID is one independent experiment; two experiment IDs per compound).
Assay [2] deals with PAK4 (Homo sapiens, UniProt O96013). Further details: endogenous in cells; host or cells: K562 cell extract; species or system K562 (extract); replicate k of n = 2 (each experiment ID is one independent experiment; two experiment IDs per compound).
Assay [3] deals with GSK3B (Homo sapiens, UniProt P49841). More on the design: endogenous in cells; host or cells: K562 cell extract; species or system K562 (extract); replicate k of n = 2 (each experiment ID is one independent experiment; two experiment IDs per compound).
The target of assay [4] is ABL2 (Homo sapiens, UniProt P42684). More on the design: endogenous in cells; host or cells: K562 cell extract; species or system K562 (extract); replicate k of n = 2 (each experiment ID is one independent experiment; two experiment IDs per compound).
For assay [5], the target named is CDC42BPG (Homo sapiens, UniProt Q6DT37). Further details: endogenous in cells; host or cells: K562 cell extract; species or system K562 (extract); replicate k of n = 2 (each experiment ID is one independent experiment; two experiment IDs per compound).
Assay [6] addresses T1, STK11 (Homo sapiens, UniProt Q15831).
T1 sequence (Q15831 1-433): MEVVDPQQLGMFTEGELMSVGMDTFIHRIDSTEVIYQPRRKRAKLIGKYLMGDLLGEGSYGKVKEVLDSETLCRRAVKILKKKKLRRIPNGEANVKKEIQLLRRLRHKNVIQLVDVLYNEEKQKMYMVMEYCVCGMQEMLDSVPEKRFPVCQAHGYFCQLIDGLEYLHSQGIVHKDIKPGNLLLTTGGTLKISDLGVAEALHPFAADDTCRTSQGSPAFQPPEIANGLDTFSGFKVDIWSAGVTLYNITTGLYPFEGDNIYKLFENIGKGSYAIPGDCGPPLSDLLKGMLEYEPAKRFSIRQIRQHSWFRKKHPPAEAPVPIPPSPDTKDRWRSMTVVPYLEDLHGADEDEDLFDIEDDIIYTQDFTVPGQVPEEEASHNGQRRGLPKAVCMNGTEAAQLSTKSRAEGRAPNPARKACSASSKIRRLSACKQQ
Further details: endogenous in cells; host or cells: K562 cell extract; species or system K562 (extract); replicate k of n = 2 (each experiment ID is one independent experiment; two experiment IDs per compound).

Assay [7] has as its target T2, PRKD2 (Homo sapiens, UniProt Q9BZL6).
T2 sequence (Q9BZL6 1-878): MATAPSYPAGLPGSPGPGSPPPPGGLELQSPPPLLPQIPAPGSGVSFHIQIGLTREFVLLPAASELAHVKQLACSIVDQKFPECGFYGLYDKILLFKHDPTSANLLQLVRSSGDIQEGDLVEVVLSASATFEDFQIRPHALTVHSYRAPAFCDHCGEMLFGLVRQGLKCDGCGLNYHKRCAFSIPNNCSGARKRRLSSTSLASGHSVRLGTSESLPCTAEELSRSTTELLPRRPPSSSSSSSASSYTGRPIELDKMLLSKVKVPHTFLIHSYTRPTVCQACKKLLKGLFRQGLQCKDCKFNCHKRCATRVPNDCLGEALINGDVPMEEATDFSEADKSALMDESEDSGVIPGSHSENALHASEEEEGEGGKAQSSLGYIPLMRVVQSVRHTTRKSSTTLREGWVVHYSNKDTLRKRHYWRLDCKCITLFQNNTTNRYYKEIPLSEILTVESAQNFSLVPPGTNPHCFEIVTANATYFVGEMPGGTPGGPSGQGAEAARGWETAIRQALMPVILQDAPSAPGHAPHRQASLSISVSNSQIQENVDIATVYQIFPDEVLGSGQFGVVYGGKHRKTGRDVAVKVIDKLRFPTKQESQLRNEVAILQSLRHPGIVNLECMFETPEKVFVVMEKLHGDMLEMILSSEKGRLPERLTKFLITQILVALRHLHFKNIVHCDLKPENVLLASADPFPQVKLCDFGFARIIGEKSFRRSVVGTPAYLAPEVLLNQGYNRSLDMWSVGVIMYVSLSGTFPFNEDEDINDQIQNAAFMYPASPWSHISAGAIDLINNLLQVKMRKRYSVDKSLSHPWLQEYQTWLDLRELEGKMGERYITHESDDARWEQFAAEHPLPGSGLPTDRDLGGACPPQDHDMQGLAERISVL
More on the design: endogenous in cells; host or cells: K562 cell extract; species or system K562 (extract); replicate k of n = 2 (each experiment ID is one independent experiment; two experiment IDs per compound).

The target of assay [8] is MAP4K5 (Homo sapiens, UniProt Q9Y4K4). Further details: species or system K562 (extract); replicate k of n = 2 (each experiment ID is one independent experiment; two experiment IDs per compound).
Sequence of MAP4K5 (Q9Y4K4 whole entry): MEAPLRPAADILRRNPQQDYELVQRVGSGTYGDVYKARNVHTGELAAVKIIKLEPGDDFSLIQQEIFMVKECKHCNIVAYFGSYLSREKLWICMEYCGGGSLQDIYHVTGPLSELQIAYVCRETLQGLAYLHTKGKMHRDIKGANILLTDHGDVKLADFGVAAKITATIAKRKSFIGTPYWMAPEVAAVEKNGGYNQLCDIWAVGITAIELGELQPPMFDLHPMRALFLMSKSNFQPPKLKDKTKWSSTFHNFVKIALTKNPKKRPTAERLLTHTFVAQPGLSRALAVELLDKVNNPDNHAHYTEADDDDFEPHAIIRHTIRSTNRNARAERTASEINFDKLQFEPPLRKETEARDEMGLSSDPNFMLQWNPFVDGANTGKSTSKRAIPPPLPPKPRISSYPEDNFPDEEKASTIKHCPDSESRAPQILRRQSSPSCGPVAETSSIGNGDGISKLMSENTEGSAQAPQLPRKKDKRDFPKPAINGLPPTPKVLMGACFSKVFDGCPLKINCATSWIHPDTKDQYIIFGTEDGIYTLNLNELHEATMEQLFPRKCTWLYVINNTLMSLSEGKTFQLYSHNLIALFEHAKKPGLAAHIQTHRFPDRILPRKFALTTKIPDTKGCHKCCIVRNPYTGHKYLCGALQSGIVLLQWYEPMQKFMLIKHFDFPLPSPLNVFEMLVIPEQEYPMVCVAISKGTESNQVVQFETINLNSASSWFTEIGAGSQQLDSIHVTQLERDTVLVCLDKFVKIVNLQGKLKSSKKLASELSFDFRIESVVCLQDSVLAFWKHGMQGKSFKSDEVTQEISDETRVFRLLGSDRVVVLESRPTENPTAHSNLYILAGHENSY

Sequence of GSK3B (P49841 whole entry): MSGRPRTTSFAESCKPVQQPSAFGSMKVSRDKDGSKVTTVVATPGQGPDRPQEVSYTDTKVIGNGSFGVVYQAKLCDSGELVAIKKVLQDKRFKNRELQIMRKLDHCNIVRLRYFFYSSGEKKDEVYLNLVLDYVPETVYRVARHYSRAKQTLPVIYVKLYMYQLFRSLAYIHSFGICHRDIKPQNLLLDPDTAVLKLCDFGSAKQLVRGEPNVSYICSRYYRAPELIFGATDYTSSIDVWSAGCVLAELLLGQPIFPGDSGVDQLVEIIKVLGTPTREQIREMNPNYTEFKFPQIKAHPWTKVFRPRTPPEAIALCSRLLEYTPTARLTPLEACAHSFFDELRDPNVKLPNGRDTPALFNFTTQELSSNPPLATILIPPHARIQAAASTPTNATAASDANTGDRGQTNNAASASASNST
Sequence of ABL2 (P42684 whole entry): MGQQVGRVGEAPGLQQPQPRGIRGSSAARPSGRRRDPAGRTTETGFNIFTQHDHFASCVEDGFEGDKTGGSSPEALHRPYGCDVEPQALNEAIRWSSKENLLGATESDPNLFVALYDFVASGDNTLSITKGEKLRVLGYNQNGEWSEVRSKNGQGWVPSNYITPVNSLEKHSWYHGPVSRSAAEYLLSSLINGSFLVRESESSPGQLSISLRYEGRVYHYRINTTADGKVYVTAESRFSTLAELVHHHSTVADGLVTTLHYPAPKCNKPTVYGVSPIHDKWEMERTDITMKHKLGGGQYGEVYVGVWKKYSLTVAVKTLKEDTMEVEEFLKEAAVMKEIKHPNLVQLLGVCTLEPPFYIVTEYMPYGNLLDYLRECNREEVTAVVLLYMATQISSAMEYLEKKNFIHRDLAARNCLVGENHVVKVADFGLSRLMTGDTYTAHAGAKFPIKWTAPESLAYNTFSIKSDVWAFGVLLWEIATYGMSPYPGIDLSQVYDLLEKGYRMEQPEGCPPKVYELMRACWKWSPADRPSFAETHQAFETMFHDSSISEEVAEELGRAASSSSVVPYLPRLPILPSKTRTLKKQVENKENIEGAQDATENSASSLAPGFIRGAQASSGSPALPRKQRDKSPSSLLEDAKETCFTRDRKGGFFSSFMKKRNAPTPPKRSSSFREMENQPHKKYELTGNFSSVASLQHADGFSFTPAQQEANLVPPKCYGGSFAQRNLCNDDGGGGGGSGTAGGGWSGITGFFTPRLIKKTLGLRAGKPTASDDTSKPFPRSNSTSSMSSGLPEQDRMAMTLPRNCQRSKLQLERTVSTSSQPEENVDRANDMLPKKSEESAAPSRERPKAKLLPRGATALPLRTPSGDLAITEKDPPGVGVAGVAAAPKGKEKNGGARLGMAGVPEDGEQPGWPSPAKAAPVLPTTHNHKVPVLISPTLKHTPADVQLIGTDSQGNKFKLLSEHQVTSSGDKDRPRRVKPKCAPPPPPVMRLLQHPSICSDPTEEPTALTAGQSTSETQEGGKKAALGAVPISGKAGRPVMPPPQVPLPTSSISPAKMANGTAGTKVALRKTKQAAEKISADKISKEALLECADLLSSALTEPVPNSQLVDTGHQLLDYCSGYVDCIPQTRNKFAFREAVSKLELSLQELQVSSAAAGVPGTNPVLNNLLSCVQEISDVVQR
Sequence of PAK4 (O96013 whole entry): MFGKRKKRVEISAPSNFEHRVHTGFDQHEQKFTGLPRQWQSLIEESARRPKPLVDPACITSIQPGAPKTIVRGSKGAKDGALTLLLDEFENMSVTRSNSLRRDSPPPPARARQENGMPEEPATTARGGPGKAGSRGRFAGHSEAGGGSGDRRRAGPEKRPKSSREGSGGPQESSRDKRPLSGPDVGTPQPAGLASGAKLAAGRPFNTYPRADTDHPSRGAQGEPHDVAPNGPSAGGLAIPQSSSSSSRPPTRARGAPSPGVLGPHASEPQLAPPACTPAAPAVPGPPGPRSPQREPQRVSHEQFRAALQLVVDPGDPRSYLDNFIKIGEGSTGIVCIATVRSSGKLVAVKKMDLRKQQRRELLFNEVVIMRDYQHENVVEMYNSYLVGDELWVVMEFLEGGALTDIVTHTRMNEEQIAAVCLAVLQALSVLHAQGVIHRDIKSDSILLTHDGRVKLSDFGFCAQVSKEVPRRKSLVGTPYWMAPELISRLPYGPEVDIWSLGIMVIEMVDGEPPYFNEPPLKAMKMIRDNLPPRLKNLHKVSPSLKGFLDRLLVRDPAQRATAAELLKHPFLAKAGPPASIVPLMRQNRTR
Sequence of CDC42BPG (Q6DT37 whole entry): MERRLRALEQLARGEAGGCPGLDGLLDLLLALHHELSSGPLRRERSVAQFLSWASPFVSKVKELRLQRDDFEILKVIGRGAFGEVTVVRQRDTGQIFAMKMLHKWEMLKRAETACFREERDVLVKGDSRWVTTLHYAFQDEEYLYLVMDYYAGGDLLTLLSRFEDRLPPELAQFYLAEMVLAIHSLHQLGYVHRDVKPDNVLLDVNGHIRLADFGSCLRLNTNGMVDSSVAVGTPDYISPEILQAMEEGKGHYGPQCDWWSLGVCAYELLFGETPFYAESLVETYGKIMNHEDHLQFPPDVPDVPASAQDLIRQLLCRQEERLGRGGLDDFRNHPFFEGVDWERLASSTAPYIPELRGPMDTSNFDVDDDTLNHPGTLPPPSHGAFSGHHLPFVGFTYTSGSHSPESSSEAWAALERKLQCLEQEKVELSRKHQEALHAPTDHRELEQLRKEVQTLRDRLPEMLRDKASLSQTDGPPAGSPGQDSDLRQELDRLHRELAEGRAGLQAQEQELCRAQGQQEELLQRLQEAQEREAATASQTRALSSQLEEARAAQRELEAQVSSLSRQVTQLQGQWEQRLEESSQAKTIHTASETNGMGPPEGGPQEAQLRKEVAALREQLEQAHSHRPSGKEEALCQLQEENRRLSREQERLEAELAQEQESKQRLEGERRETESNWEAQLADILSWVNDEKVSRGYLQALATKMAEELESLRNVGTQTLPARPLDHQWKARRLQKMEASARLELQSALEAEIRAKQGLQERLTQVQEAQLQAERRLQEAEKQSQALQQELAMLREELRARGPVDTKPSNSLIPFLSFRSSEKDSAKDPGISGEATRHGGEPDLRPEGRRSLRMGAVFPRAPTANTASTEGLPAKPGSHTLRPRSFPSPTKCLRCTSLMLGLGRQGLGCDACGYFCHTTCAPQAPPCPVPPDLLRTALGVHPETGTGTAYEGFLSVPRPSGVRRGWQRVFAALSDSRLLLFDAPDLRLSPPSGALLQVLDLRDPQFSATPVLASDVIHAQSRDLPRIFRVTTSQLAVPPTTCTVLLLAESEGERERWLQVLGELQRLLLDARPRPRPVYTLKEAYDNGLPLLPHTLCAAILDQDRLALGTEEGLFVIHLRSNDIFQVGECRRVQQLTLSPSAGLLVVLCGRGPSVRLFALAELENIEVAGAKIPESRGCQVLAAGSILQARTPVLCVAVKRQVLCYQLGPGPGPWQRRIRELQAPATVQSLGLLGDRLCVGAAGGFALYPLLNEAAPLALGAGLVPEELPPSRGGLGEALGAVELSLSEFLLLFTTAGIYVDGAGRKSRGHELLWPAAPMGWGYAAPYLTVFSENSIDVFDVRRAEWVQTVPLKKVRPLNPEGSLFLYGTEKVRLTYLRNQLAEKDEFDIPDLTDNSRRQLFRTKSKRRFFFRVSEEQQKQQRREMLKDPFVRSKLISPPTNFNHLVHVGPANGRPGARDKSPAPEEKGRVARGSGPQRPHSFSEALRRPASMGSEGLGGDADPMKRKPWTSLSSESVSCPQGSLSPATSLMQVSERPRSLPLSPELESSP

As for `CN1CCN(c2ccc(Nc3ncc(C#N)c(Nc4ccccc4C(N)=O)n3)cc2)CC1.Cl` [TCMDC-134116], the Kd is 326 nM and 266 nM in assay [1]; 205 nM and 227 nM in assay [2]; 857 nM and 535 nM in assay [3]; 89.8 nM and 71.9 nM in assay [4]; 848 nM in assay [5]; 894 nM in assay [6]. The Kd in assay [7] is 165 nM and 160 nM; in assay [8], 185 nM and 192 nM.

As to `Cl.NCC1(c2nc(-c3ccc(Cl)c(O)c3)c(-c3ccncc3)[nH]2)CCCCC1` [TCMDC-141154], the Kd in assay [1] was 977 nM; in assay [2], 4910 nM; in assay [3] it was 2750 nM; in assay [4] it was 220 nM and 180 nM; in assay [5], 6790 nM; in assay [6], 1250 nM. Besides, the Kd in assay [7] is 2520 nM and 2080 nM; in assay [8], 3310 nM.

For `CN(C)CC(O)COc1ccc(Nc2ncc([N+](=O)[O-])c(Nc3ccccc3O)n2)cc1.O=C(O)C(F)(F)F` (stereo not drawn) [TCMDC-141399], the Kd in assay [1] was 5970 nM; in assay [2], 4850 nM and 3670 nM; in assay [3], 3000 nM and 3930 nM; in assay [4], 1890 nM; in assay [5], 8140 nM; in assay [6], 3940 nM. The Kd in assay [7] came to 921 nM; in assay [8] it was 2850 nM.
